These results are taken from patent publication CN103483288A, “一类3,4-二氯异噻唑双酰肼类化合物及其制备方法和用途” (priority 2013, dated 2014).

Holding throughout (assay type): in vivo
The test system of data set [1] is tobacco mosaic virus (烟草花叶病毒(TMV)). Briefly: 直接抗TMV活性, 半叶法. The note with it: for inhibition at 100 µg/mL: Tobacco mosaic virus.
For data set [2] the test system is unchanged. Nature of the data set: 诱导烟草抗TMV活性 (活体诱导). The note with it: for inhibition at 100 µg/mL: Tobacco mosaic virus, read-out: antiviral activity (inhibition rate): induction activity.
The test system of the next data set is diamondback moth (小菜蛾). Nature of the data set: 小菜蛾杀虫活性, 叶片药膜法. The note with it: for mortality at 200 µg/mL: Plutella xylostella, read-out: kill rate.
The mark [3] stands for this setting: TMV, 100 mg/L, read-out: antiviral activity (inhibition rate): curative activity.
Setting [4] is: TMV, 100 mg/L, read-out: antiviral activity (inhibition rate): inactivation activity.
[5] abbreviates: TMV, 100 mg/L, read-out: antiviral activity (inhibition rate): protective activity.
Where [6] appears, read: induced resistance of tobacco to TMV, 100 mg/L.
Where [7] appears, read: induced resistance of tobacco to TMV.
Where [8] appears, read: 200 mg/L, 2nd instar larvae, 96 h or 120 h.

Molecules are shown by their SMILES. Where two headings read alike, the source gives them in different places.

What is called inhibition is the relative decrease from the control value, in per cent. Turning to `Cc1ccc(NC(=O)c2snnc2C)cc1Cl` [TDL, 噻酰菌胺], the inhibition at 100 µg/mL was determined as 23.5 ± 4.41% in data set [1] (setting [3]), 20.5 ± 3.88% in data set [1] (setting [4]), 20.1 ± 6.41% in data set [1] (setting [5]) and 47.5 ± 3.75% in data set [2] (setting [6]). For the same molecule, the “induction activity (in words)” value in data set [2] (setting [7]) is “具有很好的诱导烟草产生对TMV的抗性”. In addition, the “antiviral activity (inhibition rate): induction activity” value in data set [2] (setting [6]) was determined as 47%.
Take `O=[N+]([O-])NC1=NCCN1Cc1ccc(Cl)nc1` [吡虫啉]: the kill rate with diamondback moth (小菜蛾) (setting [8]) amounted to 0%. Moreover, the mortality at 200 µg/mL in the data set on diamondback moth (小菜蛾) was 0%.
Regarding `CNCC(=O)NC(CO)C(=O)NC1C(C(N)=O)OC(n2ccc(N)nc2=O)C(O)C1O` (stereo not shown) [宁南霉素], the “direct antiviral activity (in words)” value in data set [1] (TMV) is given as “具有很好的直接抗病毒活性”. The inhibition at 100 µg/mL is 41.7 ± 2.25% in data set [1] (read-out: antiviral activity (inhibition rate): curative activity), 43.1 ± 4.07% in data set [1] (read-out: antiviral activity (inhibition rate): inactivation activity), 42.9 ± 1.59% in data set [1] (read-out: antiviral activity (inhibition rate): protective activity) and 25 ± 3.75% in data set [2]. For the same molecule, in data set [2] (setting [7]), the “induction activity (in words)” value is “几乎没有诱导活性”.
Turning to `CNC(=O)c1cc(Cl)cc(C)c1NC(=O)c1cc(Br)nn1-c1ncccc1Cl` [氯虫苯甲酰胺], in the data set on diamondback moth (小菜蛾) (setting [8]), the kill rate was determined as 100% and the mortality at 200 µg/mL is 100%.
`NC(=O)c1ncn([C@@H]2O[C@H](CO)[C@@H](O)[C@H]2O)n1` [病毒唑]: the “direct antiviral activity (in words)” value in data set [1] (TMV) is “具有很好的直接抗病毒活性”. For the same molecule, the inhibition at 100 µg/mL in data set [1] (setting [3]) came out at 44.1 ± 2.94%; in data set [1] (setting [4]), 25.6 ± 3.87%; in data set [1] (setting [5]), 46 ± 4.2%; in data set [2] (setting [6]), 27.1 ± 4.39%. Moreover, the “induction activity (in words)” value in data set [2] (setting [7]) is “几乎没有诱导活性”.
